In paper PMC12669039 (Nature Microbiology, 2025):
pIC50: −log10 of the molar value.

Target: T1, HSV-1 helicase–primase (HP) complex (UL5/UL52/UL8) (Human alphaherpesvirus 1 strain 17, UniProt P10189+P10236)
T1 sequence (P10189 1-882): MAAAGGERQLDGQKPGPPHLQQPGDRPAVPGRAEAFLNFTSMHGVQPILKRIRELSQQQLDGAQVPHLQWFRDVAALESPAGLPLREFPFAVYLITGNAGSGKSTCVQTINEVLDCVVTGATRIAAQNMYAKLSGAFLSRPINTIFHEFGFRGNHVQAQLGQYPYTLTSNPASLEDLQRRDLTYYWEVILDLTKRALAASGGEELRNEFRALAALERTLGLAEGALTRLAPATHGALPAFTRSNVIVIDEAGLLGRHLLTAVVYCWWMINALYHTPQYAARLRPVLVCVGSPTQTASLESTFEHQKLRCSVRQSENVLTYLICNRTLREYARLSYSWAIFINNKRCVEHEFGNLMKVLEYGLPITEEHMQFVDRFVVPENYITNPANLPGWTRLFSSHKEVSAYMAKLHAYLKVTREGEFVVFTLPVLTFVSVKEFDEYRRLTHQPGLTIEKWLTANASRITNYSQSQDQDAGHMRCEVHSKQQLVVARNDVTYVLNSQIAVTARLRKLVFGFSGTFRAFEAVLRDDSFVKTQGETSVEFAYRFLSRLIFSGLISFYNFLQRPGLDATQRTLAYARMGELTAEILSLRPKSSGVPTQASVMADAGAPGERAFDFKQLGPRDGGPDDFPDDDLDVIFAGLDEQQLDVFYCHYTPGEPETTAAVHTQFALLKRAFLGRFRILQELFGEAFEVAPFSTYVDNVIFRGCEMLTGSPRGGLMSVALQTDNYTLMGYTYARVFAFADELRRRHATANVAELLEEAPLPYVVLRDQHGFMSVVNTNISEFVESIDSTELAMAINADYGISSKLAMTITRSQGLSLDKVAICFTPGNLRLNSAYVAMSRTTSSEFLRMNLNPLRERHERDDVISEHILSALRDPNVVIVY
T1 sequence (P10236 1-1058): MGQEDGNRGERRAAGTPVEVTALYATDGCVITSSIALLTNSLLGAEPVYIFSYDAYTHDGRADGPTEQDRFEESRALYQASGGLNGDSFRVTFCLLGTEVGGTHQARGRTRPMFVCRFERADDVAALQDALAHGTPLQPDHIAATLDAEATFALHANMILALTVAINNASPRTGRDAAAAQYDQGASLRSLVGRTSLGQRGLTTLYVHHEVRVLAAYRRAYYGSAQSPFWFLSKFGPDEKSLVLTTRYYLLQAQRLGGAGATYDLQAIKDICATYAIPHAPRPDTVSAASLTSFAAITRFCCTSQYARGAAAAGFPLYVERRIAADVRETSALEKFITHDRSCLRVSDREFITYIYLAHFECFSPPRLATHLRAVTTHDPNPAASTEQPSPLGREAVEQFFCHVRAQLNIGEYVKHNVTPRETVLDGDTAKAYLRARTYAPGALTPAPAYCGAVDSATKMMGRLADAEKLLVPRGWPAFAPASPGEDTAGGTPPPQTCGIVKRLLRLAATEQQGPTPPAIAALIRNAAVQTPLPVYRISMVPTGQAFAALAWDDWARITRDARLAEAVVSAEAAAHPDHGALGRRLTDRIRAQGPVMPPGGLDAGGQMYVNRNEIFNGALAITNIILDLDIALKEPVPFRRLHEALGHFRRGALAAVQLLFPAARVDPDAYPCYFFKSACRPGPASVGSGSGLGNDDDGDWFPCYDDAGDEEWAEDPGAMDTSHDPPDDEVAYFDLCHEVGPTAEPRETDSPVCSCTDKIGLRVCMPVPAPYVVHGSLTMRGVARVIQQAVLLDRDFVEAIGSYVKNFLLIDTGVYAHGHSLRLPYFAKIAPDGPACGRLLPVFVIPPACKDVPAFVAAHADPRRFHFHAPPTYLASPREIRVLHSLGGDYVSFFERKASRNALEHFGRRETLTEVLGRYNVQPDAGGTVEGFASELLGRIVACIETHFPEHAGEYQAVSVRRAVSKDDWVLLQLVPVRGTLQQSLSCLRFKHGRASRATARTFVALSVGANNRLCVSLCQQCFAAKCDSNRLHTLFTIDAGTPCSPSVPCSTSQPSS
T1 sequence (P10192 1-750 partner): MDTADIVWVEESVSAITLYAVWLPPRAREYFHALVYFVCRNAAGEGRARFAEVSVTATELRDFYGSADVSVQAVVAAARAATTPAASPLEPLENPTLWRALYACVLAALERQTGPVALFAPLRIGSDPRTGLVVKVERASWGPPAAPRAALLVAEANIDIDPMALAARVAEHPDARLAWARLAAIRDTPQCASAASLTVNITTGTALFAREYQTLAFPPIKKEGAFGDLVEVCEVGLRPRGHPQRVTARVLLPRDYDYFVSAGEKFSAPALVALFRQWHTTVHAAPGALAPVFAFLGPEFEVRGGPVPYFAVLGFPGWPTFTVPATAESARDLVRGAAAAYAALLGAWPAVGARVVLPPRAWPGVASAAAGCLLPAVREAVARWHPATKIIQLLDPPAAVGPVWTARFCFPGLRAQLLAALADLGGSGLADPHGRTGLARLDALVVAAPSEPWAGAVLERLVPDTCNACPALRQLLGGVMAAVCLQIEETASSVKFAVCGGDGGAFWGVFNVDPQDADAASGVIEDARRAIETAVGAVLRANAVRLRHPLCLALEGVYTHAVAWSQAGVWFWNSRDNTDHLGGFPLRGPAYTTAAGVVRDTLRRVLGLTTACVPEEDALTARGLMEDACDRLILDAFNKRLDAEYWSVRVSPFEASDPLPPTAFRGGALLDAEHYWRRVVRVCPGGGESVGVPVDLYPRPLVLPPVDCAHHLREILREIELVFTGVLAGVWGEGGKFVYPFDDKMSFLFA
Experiment: fluorescent forked-DNA unwinding
Type: biochemical

SMILES: Cc1cccc(C)c1N(CC(=O)Nc1ccc(-c2ncon2)cc1)C(=O)C1CCS(=O)(=O)CC1 [AMNV, amenamevir]
- pIC50: 8.46

SMILES: Cc1nc(N(C)C(=O)Cc2ccc(-c3ccccn3)cc2)sc1S(N)(=O)=O [PTV, pritelivir]
- pIC50: 7.95
